According to patent EP0674651B1, “SUBSTITUTED 6-AZAANDROSTENONES” (priority 1992, dated 1994):

Columns and labels:
[1] = target: T1, human type 2 5α-reductase (Homo sapiens, UniProt P31213); test: 5α-reductase in vitro inhibitory activity, human type 2
T1 sequence (P31213 1-254): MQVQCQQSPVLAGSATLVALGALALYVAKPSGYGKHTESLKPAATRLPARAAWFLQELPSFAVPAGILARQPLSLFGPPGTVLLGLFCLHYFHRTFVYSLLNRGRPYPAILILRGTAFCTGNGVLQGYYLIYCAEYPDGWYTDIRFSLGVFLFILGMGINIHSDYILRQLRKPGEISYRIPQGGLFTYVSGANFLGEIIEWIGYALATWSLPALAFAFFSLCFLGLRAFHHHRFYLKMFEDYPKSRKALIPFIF
Method: Microsomes were prepared by homogenization of the tissue or cells, followed by differential centrifugation of the homogenate. […] Corresponding incubations were carried out with no test compound as a control study.
The percentage of conversion of testosterone to DHT in the presence of test compounds compared to the corresponding conversion in the control study was estimated using high pressure liquid chromatography (HPLC) with radiochemical detection.

[2] = target: T2, human type 1 5α-reductase (Homo sapiens, UniProt P18405); test: 5α-reductase in vitro inhibitory activity, human type 1
T2 sequence (P18405 1-259): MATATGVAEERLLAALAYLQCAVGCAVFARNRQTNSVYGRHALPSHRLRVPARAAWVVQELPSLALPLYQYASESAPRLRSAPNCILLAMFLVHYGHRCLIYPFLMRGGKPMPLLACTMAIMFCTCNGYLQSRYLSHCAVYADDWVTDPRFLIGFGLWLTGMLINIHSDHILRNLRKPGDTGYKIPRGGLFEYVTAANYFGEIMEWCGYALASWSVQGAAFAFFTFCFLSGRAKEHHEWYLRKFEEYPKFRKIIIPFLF

Row | SMILES | IC50 [1] [µM] | IC50 [2] [µM]
1 | COc1ccccc1Oc1ccc(C(F)(F)F)cc1NC(=O)[C@H]1CC[C@H]2[C@@H]3CNC4=CC(=O)CC[C@]4(C)[C@H]3CC[C@]12C [Compound 80] | < 0.01 | 0.01 to 0.1
2 | C[C@]12CC[C@H]3[C@@H](CNC4=CC(=O)CC[C@@]43C)[C@@H]1CC[C@@H]2C(=O)Nc1cc(C(F)(F)F)ccc1Oc1ccc(Cl)cc1 [Compound 81, 17β-N-(2-(O-4-Chlorophenyl)-5-trifluoromethyl)phenyl-carbamoyl-6-azaandrost-4-en-3-one] | < 0.01 | 0.01 to 0.1
3 | CCc1cc(C#N)ccc1NC(=O)[C@H]1CC[C@H]2[C@@H]3CNC4=CC(=O)CC[C@]4(C)[C@H]3CC[C@]12C [Compound 84, 17β-N-(2-Ethyl-4-cyano)phenyl-carbamoyl-6-azaandrost-4-en-3-one] | < 0.01 | 0.01 to 0.1
4 | CCS(=O)(=O)c1ccc(C(F)(F)F)cc1NC(=O)[C@H]1CC[C@H]2[C@@H]3CNC4=CC(=O)CC[C@]4(C)[C@H]3CC[C@]12C [Compound 85, 17β-N-(2-Ethylsulfonyl-5-trifluoromethyl)phenyl-carbamoyl-6-azaandrost-4-en-3-one] | < 0.01 | < 0.01
5 | CC1CCC(C(C)C)C(OC(=O)OC[C@H]2CC[C@H]3[C@@H]4CNC5=CC(=O)CC[C@]5(C)[C@H]4CC[C@]23C)C1 (stereo partly drawn) [Compound 89, 17β-Hydroxymethyl-(menthylcarbonate)-6-azaandrost-4-en-3-one] | < 0.01 | 0.01 to 0.1
6 | C[C@]12CC[C@H]3[C@@H](CNC4=CC(=O)CC[C@@]43C)[C@@H]1CC[C@@H]2COC(=O)Oc1ccccc1 [Compound 90, 17β-Hydroxymethyl-(phenylcarbonate)-6-azaandrost-4-en-3-one] | < 0.01 | < 0.01
7 | CC(C)NC(=O)N(C(=O)[C@H]1CC[C@H]2[C@@H]3CNC4=CC(=O)CC[C@]4(C)[C@H]3CC[C@]12C)C(C)C [Compound 95, 17β-(N-i-Propyl-N-(N-i-propylcarbamoyl))-carbamoyl-6-azaandrost-4-en-3-one] | 0.01 to 0.1 | > 0.1
8 | C[C@]12CC[C@H]3[C@@H](CNC4=CC(=O)CC[C@@]43C)[C@@H]1CC[C@@H]2C(=O)N(C(=O)NC1CCCCC1)C1CCCCC1 [Compound 96, 17β-(N-cyclohexyl-N-(N-cyclohexylcarbamoyl))-carbamoyl-6-azaandrost-4-en-3-one] | < 0.01 | 0.01 to 0.1
9 | CC(=O)NC[C@H]1CC[C@H]2[C@@H]3CNC4=CC(=O)CC[C@]4(C)[C@H]3CC[C@]12C [Compound 97, 17β-Aminomethyl-(acetamide)-6-azaandrost-4-en-3-one] | 0.01 to 0.1 | > 0.1
10 | C[C@]12CC[C@H]3[C@@H](CNC4=CC(=O)CC[C@@]43C)[C@@H]1CC[C@@H]2CNC(=O)NC12CC3CC(CC(C3)C1)C2 [Compound 98, 17β-Aminomethyl-(1-adamantylurea)-6-azaandrost-4-en-3-one] | < 0.01 | < 0.01
11 | C[C@]12CC[C@H]3[C@@H](CNC4=CC(=O)CC[C@@]43C)[C@@H]1CC[C@@H]2C(=O)NC1(c2ccc(Cl)cc2Cl)CC1 [Compound 101, 17β-N-1-(2,4-Dichlorophenyl)cyclopropyl-carbamoyl-6-azaandrost-4-en-3-one] | < 0.01 | < 0.01
12 | C[C@]12CC[C@H]3[C@@H](CNC4=CC(=O)CC[C@@]43C)[C@@H]1CC[C@@H]2C(=O)NC1(c2cccc(C(F)(F)F)c2)CCCC1 [Compound 102, 17β-N-1-(3-Trifluoromethylphenyl)cyclopentyl-carbamoyl-6-azaandrost-4-en-3-one] | < 0.01 | < 0.01
13 | CCC(CC)(NC(=O)[C@H]1CC[C@H]2[C@@H]3CNC4=CC(=O)CC[C@]4(C)[C@H]3CC[C@]12C)c1ccccc1 [Compound 103, 17β-N-(1-Ethyl-1-phenyl)propyl-carbamoyl-6-azaandrost-4-en-3-one] | < 0.01 | 0.01 to 0.1
14 | C[C@]12CC[C@H]3[C@@H](CNC4=CC(=O)CC[C@@]43C)[C@@H]1CC[C@@H]2C(=O)NC1(c2ccc(F)cc2)CCCC1 [Compound 104, 17β-N-1-(4-Fluorophenyl)cyclopentyl-carbamoyl-6-azaandrost-4-en-3-one] | < 0.01 | 0.01 to 0.1
15 | C[C@]12CC[C@H]3[C@@H](CNC4=CC(=O)CC[C@@]43C)[C@@H]1CC[C@@H]2C(=O)NC1(c2ccc(C(F)(F)F)cc2)CCCC1 [Compound 106, 17β-N-1-(4-Trifluoromethylphenyl)cyclopentyl-carbamoyl-6-azaandrost-4-en-3-one] | < 0.01 | < 0.01
16 | C[C@]12CC[C@H]3[C@@H](CNC4=CC(=O)CC[C@@]43C)[C@@H]1CC[C@@H]2C(=O)NC1(c2ccc(F)cc2)CCCCC1 [Compound 109, 17β-N-1-(4-Fluorophenyl)cyclohexyl-carbamoyl-6-azaandrost-4-en-3-one] | < 0.01 | < 0.01
17 | CC1(C)Cc2ccccc2C1NC(=O)[C@H]1CC[C@H]2[C@@H]3CNC4=CC(=O)CC[C@]4(C)[C@H]3CC[C@]12C (stereo partly drawn) [Compound 110, 17β-N-1-(2,2-Dimethyl)indanyl-carbamoyl-6-azaandrost-4-en-3-one] | < 0.01 | 0.01 to 0.1
18 | COc1ccc(C2(NC(=O)[C@H]3CC[C@H]4[C@@H]5CNC6=CC(=O)CC[C@]6(C)[C@H]5CC[C@]34C)CCCCC2)cc1 [Compound 111, 17β-N-1-(4-Methoxyphenyl)cyclohexyl-carbamoyl-6-azaandrost-4-en-3-one] | < 0.01 | < 0.01

Continued, values first:

Row | IC50 [1] [µM] | IC50 [2] [µM] | SMILES
19 | < 0.01 | < 0.01 | CC(C)(C)c1ccc(NC(=O)[C@H]2CC[C@H]3[C@@H]4CNC5=CC(=O)CC[C@]5(C)[C@H]4CC[C@]23C)c([N+](=O)[O-])c1 [Compound 82, 17β-N-(2-Nitro-4-t-butyl)phenyl-carbamoyl-6-azaandrost-4-en-3-one]
20 | < 0.01 | 0.01 to 0.1 | CCC(C)(C)c1ccc(Oc2ccccc2)c(NC(=O)[C@H]2CC[C@H]3[C@@H]4CNC5=CC(=O)CC[C@]5(C)[C@H]4CC[C@]23C)c1 [Compound 83, 17β-N-(2-(O-Phenyl)-5-(1,1-dimethyl)propyl)phenyl-carbamoyl-6-azaandrost-4-en-3-one]
21 | < 0.01 | < 0.01 | CC(C)(C)c1cc(NC(=O)[C@H]2CC[C@H]3[C@@H]4CNC5=CC(=O)CC[C@]5(C)[C@H]4CC[C@]23C)cc(C(C)(C)C)c1 [Compound 86, 17β-N-(3,5-Di-t-butyl)phenyl-carbamoyl-6-azaandrost-4-en-3-one]
22 | < 0.01 | < 0.01 | CC(C)(C)c1ccc(C(F)(F)F)cc1NC(=O)[C@H]1CC[C@H]2[C@@H]3CNC4=CC(=O)CC[C@]4(C)[C@H]3CC[C@]12C [Compound 87, 17β-N-(2-t-Butyl-5-trifluoromethyl)phenyl-carbamoyl-6-azaandrost-4-en-3-one]
23 | < 0.01 | < 0.01 | CC(C)(C)c1ccc(-c2ccccc2)cc1NC(=O)[C@H]1CC[C@H]2[C@@H]3CNC4=CC(=O)CC[C@]4(C)[C@H]3CC[C@]12C [Compound 88, 17β-N-(2-t-Butyl-5-phenyl)phenyl-carbamoyl-6-azaandrost-4-en-3-one]
24 | < 0.01 | 0.01 to 0.1 | CC(C)(C)c1ccc(NC(=O)[C@H]2CC[C@H]3[C@@H]4CNC5=CC(=O)CC[C@]5(C)[C@H]4CC[C@]23C)cc1[N+](=O)[O-] [Compound 92, 17β-N-(3-Nitro-4-t-butyl)phenyl-carbamoyl-6-azaandrost-4-en-3-one]
25 | < 0.01 | 0.01 to 0.1 | CC1=C2NC[C@H]3[C@@H]4CC[C@H](C(=O)Nc5c(C(C)C)cccc5C(C)C)[C@@]4(C)CC[C@@H]3[C@@]2(C)C=CC1=O [Compound 94, 17β-N-(2,6-Di-i-propyl)phenyl-carbamoyl-6-azaandrost-4-methyl-1,4-dien-3-one]
26 | < 0.01 | < 0.01 | CC(C)c1cccc(C(C)C)c1NC(=O)OC[C@H]1CC[C@H]2[C@@H]3CNC4=CC(=O)CC[C@]4(C)[C@H]3CC[C@]12C [Compound 99, 17β-Hydroxymethyl-(2,6-diisopropylphenylcarbamate)-6-azaandrost-4-en-3-one]
27 | < 0.01 | < 0.01 | CC(C)(C)c1ccc(NC(=O)[C@H]2CC[C@H]3[C@@H]4CNC5=CC(=O)CC[C@]5(C)[C@H]4CC[C@]23C)c(C(F)(F)F)c1 [Compound 100, 17β-N-(4-t-Butyl-2-trifluoromethyl)phenyl-carbamoyl-6-azaandrost-4-en-3-one]
28 | < 0.01 | < 0.01 | CCN(CC)C(=O)c1ccc(C(C)(C)C)c(NC(=O)[C@H]2CC[C@H]3[C@@H]4CNC5=CC(=O)CC[C@]5(C)[C@H]4CC[C@]23C)c1 [Compound 105, 17β-N-(2-t-Butyl-5-N,N-diethylcarbamoyl)phenyl-carbamoyl-6-azaandrost-4-en-3-one]
29 | < 0.01 | > 0.1 | C[C@]12CC[C@H]3[C@@H](CNC4=CC(=O)CC[C@@]43C)[C@@H]1CC[C@@H]2C(=O)Nc1cccc(C#N)c1 [Compound 107, 17β-N-(3-Cyano)phenyl-carbamoyl-6-azaandrost-4-en-3-one]
30 | < 0.01 | 0.01 to 0.1 | CC(C)(C)c1ccc(NC(=O)[C@H]2CC[C@H]3[C@@H]4CNC5=CC(=O)CC[C@]5(C)[C@H]4CC[C@]23C)cc1 [Compound 108, 17β-N-(4-t-Butyl)phenyl-carbamoyl-6-azaandrost-4-en-3-one]
